Patent US12435060B2, “Acylamino bridged heterocyclic compound, and composition and application thereof” (BEIJING SCITECH-MQ PHARMACEUTICALS LIMITED, priority 2019, dated 2025)

What follows are compounds tested on HT29 cells (assay: Inhibition of cell necrosis (CCK8 method), induced programmed necrosis of HT29 cells). Conditions: Homo sapiens, HT-29; rescue from necrosis induced by TNF-α 20 ng/mL, AT-406 1 μM, Z-VAD-FMK 20 μM; 16-20 hours; CCK-8, OD 450 nm.
Format: cell-based
Method in brief: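 Rescue from programmed necrosis was scored by CCK-8 absorbance at 450 nm after 16-20 h of TNF-α (20 ng/mL), AT-406 (1 μM) and Z-VAD-FMK (20 μM) at 37 °C, 5% CO2. HT29 cells had received compound 30 min earlier across nine 4-fold dilutions (top 25000 nM final). IC50 came from % inhibition relative to uninduced and induced-only wells.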

First: Cc1ccc(OCCCC(C)(C)O)cc1-c1ccnc(NC(=O)c2nnc(Cc3cc(F)cc(C(F)(F)F)c3)[nH]2)c1 [Example 213, 5-(3-fluoro-5-trifluoromethylbenzyl)-N-(4-(5-((4-hydroxy-4-methylpentyl)oxy)-2-methylphenyl)pyridin-2-yl)-4H-1,2,4-triazole-3-carboxamide]
Second: Cc1cc(Cc2nnc(C(=O)Nc3cc(-c4cc(OCCCC(C)(C)O)ccc4Cl)ccn3)[nH]2)ccc1F [Example 345, N-(4-(2-chloro-5-((4-hydroxy-4-methylpentyl)oxy)phenyl)pyridin-2-yl)-5-(4-fluoro-3-methylbenzyl)-4H-1,2,4-triazole-3-carboxamide]
The IC50 of the first is higher: 1000 to 10000 nM for the first, 100 to 1000 nM for the second. The second is the more potent here.

`Cc1ccc(OCCCCC(C)(C)O)cc1-c1cc(NC(=O)c2nnc(Cc3ccccc3F)[nH]2)ncc1F` [Example 494, N-(5-fluoro-4-(5-((5-hydroxyl-5-methylhexyl)oxy)-2-methylphenyl)pyridin-2-yl)-5-(2-fluorobenzyl)-4H-1,2,4-triazole-3-carboxamide] and `CC(C)(O)CCCCOc1ccc(Cl)c(-c2ccnc(NC(=O)c3nnc(Cc4ccccc4)[nH]3)c2)c1` [Example 367, 5-benzyl-N-(4-(2-chloro-5-((5-hydroxyl-5-methylhexyl)oxy)phenyl)pyridin-2-yl)-4H-1,2,4-triazole-3-carboxamide] cannot be ordered by IC50: no more than 100 nM for the first, no more than 100 nM for the second.

`O=C(Nc1cc(-c2cc(OCCC3CCOCC3)ccc2C(F)(F)F)ccn1)c1nnc(Cc2ccccc2F)[nH]1` [Example 306, 5-(2-fluorobenzyl)-N-(4-(5-(2-(tetrahydro-2H-pyran-4-yl)ethoxy)-2-(trifluoromethyl)phenyl)pyridin-2-yl)-4H-1,2,4-triazole-3-carboxamide] and `Cc1ccc(OCCC2CCOCC2)cc1-c1cc(NC(=O)c2nnc(Cc3ccccc3F)[nH]2)ncn1` [Example 446, 5-(2-fluorobenzyl)-N-(6-(2-methyl-5-(2-(tetrahydro-2H-pyran-4-yl)ethoxy)phenyl)pyrimidin-4-yl)-4H-1,2,4-triazole-3-carboxamide] cannot be ordered by IC50: no more than 100 nM for the first, no more than 100 nM for the second.

`O=C(Nc1cc(-c2cc(OCCC3CCOCC3)ccc2Cl)ccn1)c1nnc(CC2CCCCC2)[nH]1` [Example 406, N-(4-(2-chloro-5-(2-(tetrahydro-2H-pyran-4-yl)ethoxy)phenyl)pyridin-2-yl)-5-(cyclohexylmethyl)-4H-1,2,4-triazole-3-carboxamide] and `O=C(Nc1cc(-c2cc(OCCC3CCOCC3)ccc2Cl)c(Cl)cn1)c1nnc(CC2CCCCC2)[nH]1` [Example 431, N-(5-chloro-4-(2-chloro-5-(2-(tetrahydro-2H-pyran-4-yl)ethoxy)phenyl)pyridin-2-yl)-5-(cyclohexylmethyl)-4H-1,2,4-triazole-3-carboxamide] cannot be ordered by IC50: no more than 100 nM for the first, 100 to 1000 nM for the second.

First: Cc1cnc(NC(=O)c2nnc(CC3CCCCC3)[nH]2)cc1-c1cc(OCCC2CCOCC2)ccc1F [Example 336, 5-(cyclohexylmethyl)-N-(4-(2-fluoro-5-(2-(tetrahydro-2H-pyran-4-yl)ethoxy)phenyl)-5-methylpyridin-2-yl)-4H-1,2,4-triazole-3-carboxamide]
Second: O=C(Nc1cc(-c2cc(OCCC3CCOCC3)ccc2Cl)c(Cl)cn1)c1nnc(Cc2ccccc2F)[nH]1 [Example 430, N-(5-chloro-4-(2-chloro-5-(2-(tetrahydro-2H-pyran-4-yl)ethoxy)phenyl)pyridin-2-yl)-5-(2-fluorobenzyl)-4H-1,2,4-triazole-3-carboxamide]
The IC50 of the first is higher: 1000 to 10000 nM for the first, 100 to 1000 nM for the second.

`CC(C)(O)CCCOc1ccc(C(F)(F)F)c(-c2ccnc(NC(=O)c3nnc(CC4CCCCC4)[nH]3)c2)c1` [Example 259, 5-(cyclohexylmethyl)-N-(4-(5-((4-hydroxy-4-methylpentyl)oxy)-2-(trifluoromethyl)phenyl)pyridin-2-yl)-4H-1,2,4-triazole-3-carboxamide] and `O=C(Nc1cc(-c2cc(OCCCCCO)ccc2C(F)(F)F)ccn1)c1nnc(CC2CCCCC2)[nH]1` [Example 278, 5-(cyclohexylmethyl)-N-(4-(5-((5-hydroxypentyl)oxy)-2-(trifluoromethyl)phenyl)pyridin-2-yl)-4H-1,2,4-triazole-3-carboxamide] cannot be ordered by IC50: no more than 100 nM for the first, no more than 100 nM for the second.

Compared with `O=C(Nc1cc(-c2cccc3c2OCC3)ccn1)c1nnc(Cc2ccccc2)[nH]1` [Example 38, 5-benzyl-N-(4-(2,3-dihydrobenzofuran-7-yl)pyridin-2-yl)-4H-1,2,4-triazole-3-carboxamide], `O=C(Nc1cc(-c2cccc3c2OCO3)ccn1)c1nnc(Cc2ccccc2)[nH]1` [Example 41, N-(4-(benzo[d][1,3]dioxol-4-yl)pyridin-2-yl)-5-benzyl-4H-1,2,4-triazole-3-carboxamide] is higher in IC50: 1000 to 10000 nM for the first, greater than 10000 nM for the second.

`CC(C)(O)CCCCOc1ccc(Cl)c(-c2cc(NC(=O)c3nnc(CC4CCCCC4)[nH]3)ncc2Cl)c1` [Example 421, N-(5-chloro-4-(2-chloro-5-((5-hydroxyl-5-methylhexyl)oxy)phenyl)pyridin-2-yl)-5-(cyclohexylmethyl)-4H-1,2,4-triazole-3-carboxamide] and `Cc1ccc(S(=O)(=O)CCCC(C)(C)O)cc1-c1ccnc(NC(=O)c2nnc(CC3CCCC3)[nH]2)c1` [Example 475, 5-(cyclopentylmethyl)-N-(4-(5-((4-hydroxy-4-methylpentyl)sulfonyl)-2-methylphenyl)pyridin-2-yl)-4H-1,2,4-triazole-3-carboxamide] cannot be ordered by IC50: 100 to 1000 nM for the first, no more than 100 nM for the second.

`O=C(Nc1cc(-c2cc(OCC3CCOCC3)ccc2F)c(Cl)cn1)c1nnc(Cc2ccccc2F)[nH]1` [Example 329, N-(5-chloro-4-(2-fluoro-5-((tetrahydro-2H-pyran-4-yl)methoxy)phenyl)pyridin-2-yl)-5-(2-fluorobenzyl)-4H-1,2,4-triazole-3-carboxamide] and `Cc1ccc(OCC2CCOC2)cc1-c1ccnc(NC(=O)c2nnc(Cc3ccccc3)[nH]2)c1` (centres unmarked) [Example 122, 5-benzyl-N-(4-(2-methyl-5-((tetrahydrofuran-3-yl)methoxy)phenyl)pyridin-2-yl)-4H-1,2,4-triazole-3-carboxamide] cannot be ordered by IC50: 100 to 1000 nM for the first, no more than 100 nM for the second.

`Cc1ncc(OCCOC(C)C)cc1-c1ccnc(NC(=O)c2nnc(Cc3ccccc3)[nH]2)c1` [Example 132, 5-benzyl-N-(5-(2-isopropoxyethoxy)-2-methyl-[3,4′-dipyridine]-2′-yl)-4H-1,2,4-triazole-3-carboxamide] and `CCOCCOc1ccc(Cl)c(-c2ccnc(NC(=O)c3nnc(Cc4ccccc4)[nH]3)c2)c1` [Example 383, 5-benzyl-N-(4-(2-chloro-5-(2-ethoxyethoxy)phenyl)pyridin-2-yl)-4H-1,2,4-triazole-3-carboxamide] cannot be ordered by IC50: 100 to 1000 nM for the first, no more than 100 nM for the second.

`Cc1ccc(C#N)cc1-c1ccnc(NC(=O)c2nnc(Cc3ccccc3)[nH]2)c1` [Example 35, 5-benzyl-N-(4-(5-cyano-2-methylphenyl)pyridin-2-yl)-4H-1,2,4-triazole-3-carboxamide] and `C=CCOc1ccc(C)c(-c2ccnc(NC(=O)c3nnc(Cc4ccccc4)[nH]3)c2)c1` [Example 82, N-(4-(5-(allyloxy)-2-methylphenyl)pyridin-2-yl)-5-benzyl-4H-1,2,4-triazole-3-carboxamide] cannot be ordered by IC50: no more than 100 nM for the first, 100 to 1000 nM for the second.

Compound `Cc1ccc(OCCCCCCCCO)cc1-c1ccnc(NC(=O)c2nnc(Cc3ccccc3)[nH]2)c1` [Example 154, 5-benzyl-N-(4-(5-((8-hydroxyoctyl)oxy)-2-methylphenyl)pyridin-2-yl)-4H-1,2,4-triazole-3-carboxamide] has an IC50 of no more than 100 nM.
